For one assay, the target named is hNAMPT protein (Homo sapiens (Human), UniProt P43490). As to the kind of experiment: NAMPT enzyme assay (TR-FRET/HTRF, BodiPY ligand, anti 6His-Tb). The assay is classed as binding. The settings on record: for inhibition at 1 µM: NAMPT inhibition at compound concentration 1 μM, read-out: Percent Inhibition; for IC50: NAMPT inhibition, IC50 range class, read-out: IC50. In short, it runs like this: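 Compound or DMSO was incubated for 1 h at room temperature, protected from light, with BodiPY ligand and hNAMPT labelled by terbium anti-6His antibody. The 520 nm to 486 nm emission ratio after 320 nm excitation gave inhibition versus vehicle, from which concentration-response curves yielded IC50.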
(TR-FRET usually uses a lanthanide donor and a delayed reading to cut background.)

For a further assay, the system named is PC3 cells. As to the kind of experiment: PC3 growth inhibition (Cell-titer glo, 72 hours). The class given is cell-based. The note with it: Homo sapiens, PC-3; compound concentration 1.667 μM; PC3 cells, 72 hours, Cell-titer glo; read-out: Percent Inhibition (PC3 growth inhibition). Summed up:
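Compounds in AIM serum-free medium were applied for 72 h at 37 °C, 5% CO2 to PC3 cells plated overnight from RPMI1640 culture. Luminescence after 10 min CellTiter-Glo, normalised to DMSO, gave % viability at 1 μM or 1.667 μM, or GI50/LD50.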

hNAMPT protein, sequence (P43490 whole entry): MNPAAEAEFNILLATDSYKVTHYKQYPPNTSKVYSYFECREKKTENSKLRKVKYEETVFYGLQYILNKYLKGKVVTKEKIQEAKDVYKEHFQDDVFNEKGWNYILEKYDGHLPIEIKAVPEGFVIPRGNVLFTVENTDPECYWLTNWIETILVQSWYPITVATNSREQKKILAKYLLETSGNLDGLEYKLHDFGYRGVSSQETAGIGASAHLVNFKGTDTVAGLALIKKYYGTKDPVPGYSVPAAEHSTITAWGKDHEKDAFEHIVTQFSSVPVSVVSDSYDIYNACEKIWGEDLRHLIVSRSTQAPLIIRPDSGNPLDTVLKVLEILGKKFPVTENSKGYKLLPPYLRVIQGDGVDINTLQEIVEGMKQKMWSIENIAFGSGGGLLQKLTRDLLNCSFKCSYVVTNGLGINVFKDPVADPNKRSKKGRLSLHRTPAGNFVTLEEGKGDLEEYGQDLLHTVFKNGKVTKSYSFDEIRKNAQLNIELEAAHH

On to `O=C(NCCCc1ncc[nH]1)c1ccc2nc(OCc3ccccn3)c(-c3ccc(F)cc3)nc2c1` [Compound I-396, 3-(4-fluorophenyl)-N-[3-(1H-imidazol-2-yl)propyl]-2-(pyridin-2-ylmethoxy)quinoxaline-6-carboxamide], for which, at hNAMPT protein, the inhibition at 1 µM was found to be 98% and the concentration for half-maximal inhibition (IC50) was less than 100 nM. In the assay on PC3 cells, the inhibition at 1.667 µM turned out to be 2%.
`O=C(NCCCc1ncc[nH]1)c1ccc2nc(-c3ccc(F)cc3)c(-c3ccc(Cl)c(Cl)c3)nc2c1` [Compound I-397, 3-(3,4-dichlorophenyl)-2-(4-fluorophenyl)-N-[3-(1H-imidazol-2-yl)propyl]quinoxaline-6-carboxamide]: at hNAMPT protein, the inhibition at 1 µM worked out at 97% and the IC50 was less than 100 nM. Besides, in the assay on PC3 cells, the inhibition at 1.667 µM amounted to 2%.
`COc1cccc(-c2nc3cc(C(=O)NCCCc4ncc[nH]4)ccc3nc2-c2ccc(F)cc2)c1F` [Compound I-398, 3-(2-fluoro-3-methoxyphenyl)-2-(4-fluorophenyl)-N-[3-(1H-imidazol-2-yl)propyl]quinoxaline-6-carboxamide]: at hNAMPT protein, the inhibition at 1 µM was 93% and the half-maximal inhibitory concentration (IC50) was less than 100 nM. Further, the inhibition at 1.667 µM with PC3 cells came to 2%.
For `O=C(NCCCc1ncc[nH]1)c1ccc2nc(-c3ccc(F)cc3)c(-c3cc(F)ccc3Cl)nc2c1` [Compound I-399, 3-(2-chloro-5-fluorophenyl)-2-(4-fluorophenyl)-N-[3-(1H-imidazol-2-yl)propyl]quinoxaline-6-carboxamide], at hNAMPT protein, the inhibition at 1 µM amounted to 95% and the half-maximal inhibitory concentration (IC50) is less than 100 nM. In addition, in the assay on PC3 cells, the inhibition at 1.667 µM came out at 1%.
Take `O=C(NCCCc1ncc[nH]1)c1ccc2nc(OC3CCCC3)c(-c3ccc(F)cc3)nc2c1` [Compound I-400, 2-(cyclopentyloxy)-3-(4-fluorophenyl)-N-[3-(1H-imidazol-2-yl)propyl]quinoxaline-6-carboxamide]: on hNAMPT protein, the inhibition at 1 µM was 97% and the half-inhibitory concentration (IC50) is less than 100 nM. Besides, in the assay with PC3 cells, the inhibition at 1.667 µM was 2%.
Turning to `CS(=O)(=O)CCOc1nc2ccc(C(=O)NCCCc3ncc[nH]3)cc2nc1-c1ccc(F)cc1` [Compound I-401, 3-(4-fluorophenyl)-N-[3-(1H-imidazol-2-yl)propyl]-2-[2-(methylsulfonyl)ethoxy]quinoxaline-6-carboxamide], on hNAMPT protein, the inhibition at 1 µM came to 69% and the IC50 was 100 to 500 nM. For the same molecule, in the assay with PC3 cells, the inhibition at 1.667 µM is 99%.
In the case of `CCOc1nc2ccc(C(=O)NCCCc3ncc[nH]3)cc2nc1-c1ccc(Cl)cc1` [Compound I-402, 3-(4-chlorophenyl)-2-ethoxy-N-[3-(1H-imidazol-2-yl)propyl]quinoxaline-6-carboxamide], on hNAMPT protein, the inhibition at 1 µM stood at 97% and the IC50 is less than 100 nM. Further, the inhibition at 1.667 µM in the assay on PC3 cells worked out at 2%.
Take `CC(C)Oc1nc2ccc(C(=O)NCc3ccc4nccn4c3)cc2nc1-c1ccc(Cl)s1` [Compound I-403, 3-(5-chloro-2-thienyl)-N-(imidazo[1,2-a]pyridin-6-ylmethyl)-2-isopropoxyquinoxaline-6-carboxamide]: on hNAMPT protein, the inhibition at 1 µM was 89% and the IC50 is 100 to 500 nM. Also, in the assay with PC3 cells, the inhibition at 1.667 µM was 0%.
Regarding `O=C(NCCCc1ncc[nH]1)c1ccc2nc(OC3CC4(CCN4)C3)c(-c3ccc(F)cc3)nc2c1` (stereo not drawn) [Compound I-404, 2-(1-azaspiro[3.3]hept-6-yloxy)-3-(4-fluorophenyl)-N-[3-(1H-imidazol-2-yl)propyl]quinoxaline-6-carboxamide], on hNAMPT protein, the inhibition at 1 µM was greater than 99% and the IC50 was less than 100 nM. Further, the inhibition at 1.667 µM in the assay on PC3 cells was found to be 1%.
In the case of `O=C(NCCCc1ncc[nH]1)c1ccc2nc(CN3CCOCC3)c(-c3ccc(F)cc3)nc2c1` [Compound I-405, 3-(4-fluorophenyl)-N-[3-(1H-imidazol-2-yl)propyl]-2-(morpholin-4-ylmethyl)quinoxaline-6-carboxamide], on hNAMPT protein, the inhibition at 1 µM was 72% and the 50% inhibitory concentration (IC50) lay in the range of 100 to 500 nM. In the assay on PC3 cells, the inhibition at 1.667 µM worked out at 3%.
Taken in the same sequence, the figures for `O=C(NCCCc1ncc[nH]1)c1ccc2nc(OCC3CCOCC3)c(-c3ccc(F)cc3)nc2c1` [Compound I-406, 3-(4-fluorophenyl)-N-[3-(1H-imidazol-2-yl)propyl]-2-(tetrahydro-2H-pyran-4-ylmethoxy)quinoxaline-6-carboxamide] were greater than 99%, less than 100 nM and 2%.
On to `N#CC1(COc2nc3ccc(C(=O)NCCCc4ncc[nH]4)cc3nc2-c2ccc(F)cc2)CCC1` [Compound I-407, 2-[(1-cyanocyclobutyl)methoxy]-3-(4-fluorophenyl)-N-[3-(1H-imidazol-2-yl)propyl]quinoxaline-6-carboxamide], for which, at hNAMPT protein, the inhibition at 1 µM is greater than 99% and the half-inhibitory concentration (IC50) is less than 100 nM. In the assay with PC3 cells, the inhibition at 1.667 µM was found to be 2%.
As for `O=C(NCc1cn2cccnc2n1)c1ccc2nc(-c3ccc(F)cc3)c(-c3ccc(F)cc3)nc2c1` [Compound I-408, 2,3-bis(4-fluorophenyl)-N-(imidazo[1,2-a]pyrimidin-2-ylmethyl)quinoxaline-6-carboxamide], at hNAMPT protein, the inhibition at 1 µM stood at 85% and the half-inhibitory concentration (IC50) fell in the range of 100 to 500 nM. In the assay with PC3 cells, the inhibition at 1.667 µM was greater than 99%.
For `O=C(NCCCc1ncc[nH]1)c1ccc2nc(OCc3cccnc3)c(-c3ccc(F)cc3)nc2c1` [Compound I-409, 3-(4-fluorophenyl)-N-[3-(1H-imidazol-2-yl)propyl]-2-(pyridin-3-ylmethoxy)quinoxaline-6-carboxamide], on hNAMPT protein, the inhibition at 1 µM amounted to 98% and the IC50 is less than 100 nM. The inhibition at 1.667 µM in the assay on PC3 cells was 2%.
`O=C(NCCCc1ncc[nH]1)c1ccc2nc(-c3ccc(F)cc3)c(-c3cc(Cl)cnc3F)nc2c1` [Compound I-410, 3-(5-chloro-2-fluoropyridin-3-yl)-2-(4-fluorophenyl)-N-[3-(1H-imidazol-2-yl)propyl]quinoxaline-6-carboxamide]: at hNAMPT protein, the inhibition at 1 µM amounted to 98% and the IC50 lay in the range of 100 to 500 nM. The inhibition at 1.667 µM with PC3 cells turned out to be 2%.
On to `COCC(COC)Oc1nc2ccc(C(=O)NCCCc3ncc[nH]3)cc2nc1-c1ccc(F)cc1` [Compound I-411, 2-[(1,3-dimethoxypropan-2-yl)oxy]-3-(4-fluorophenyl)-N-[3-(1H-imidazol-2-yl)propyl]quinoxaline-6-carboxamide], for which, on hNAMPT protein, the inhibition at 1 µM stood at 97% and the 50% inhibitory concentration (IC50) lay in the range of 100 to 500 nM. Further, the inhibition at 1.667 µM in the assay with PC3 cells came out at 2%.
Taken in the same sequence, the figures for `O=C(NCCCc1ncc[nH]1)c1ccc2nc(-c3ccc(F)cc3)c(-c3cc4ccccc4s3)nc2c1` [Compound I-412, 3-(1-benzothiophen-2-yl)-2-(4-fluorophenyl)-N-[3-(1H-imidazol-2-yl)propyl]quinoxaline-6-carboxamide] were 96%, 100 to 500 nM and 6%.
On to `Cc1nccn1-c1nc2ccc(C(=O)NCCCc3ncc[nH]3)cc2nc1-c1ccc(F)cc1` [Compound I-413, 3-(4-fluorophenyl)-N-[3-(1H-imidazol-2-yl)propyl]-2-(2-methyl-1H-imidazol-1-yl)quinoxaline-6-carboxamide], for which, at hNAMPT protein, the inhibition at 1 µM came to 80% and the IC50 lay within 100 to 500 nM. In the assay with PC3 cells, the inhibition at 1.667 µM came out at 3%.
For the molecule `CC(C)Oc1nc2ccc(C(=O)NCCCc3ncc[nH]3)cc2nc1-c1cc(C#N)ccc1F` [Compound I-414, 3-(5-cyano-2-fluorophenyl)-N-[3-(1H-imidazol-2-yl)propyl]-2-isopropoxyquinoxaline-6-carboxamide], at hNAMPT protein, the inhibition at 1 µM is 95% and the IC50 is less than 100 nM. Also, the inhibition at 1.667 µM in the assay on PC3 cells is 1%.
As for `COc1ccc(-c2nc3cc(C(=O)NCCCc4ncc[nH]4)ccc3nc2-c2ccc(F)cc2)c(F)c1` [Compound I-415, 3-(2-fluoro-4-methoxyphenyl)-2-(4-fluorophenyl)-N-[3-(1H-imidazol-2-yl)propyl]quinoxaline-6-carboxamide], on hNAMPT protein, the inhibition at 1 µM is 75% and the IC50 lay in the range of 100 to 500 nM. Besides, the inhibition at 1.667 µM in the assay on PC3 cells is 2%.
Taken in the same sequence, the figures for `C#Cc1ccc(-c2nc3cc(C(=O)NCCCc4ncc[nH]4)ccc3nc2-c2ccc(F)cc2)cc1` [Compound I-416, 3-(4-ethynylphenyl)-2-(4-fluorophenyl)-N-[3-(1H-imidazol-2-yl)propyl]quinoxaline-6-carboxamide] were 76%, 100 to 500 nM and 2%.
Consider `O=C(NCCCc1ncc[nH]1)c1ccc2nc(-c3ccc(F)cc3)c(-c3ccc4nccn4c3)nc2c1` [Compound I-417, 2-(4-fluorophenyl)-N-[3-(1H-imidazol-2-yl)propyl]-3-(imidazo[1,2-a]pyridin-6-yl)quinoxaline-6-carboxamide], for which, at hNAMPT protein, the inhibition at 1 µM was found to be 81% and the half-inhibitory concentration (IC50) lay within 100 to 500 nM. For the same molecule, in the assay on PC3 cells, the inhibition at 1.667 µM came out at 2%.
Taken in the same sequence, the figures for `O=C(NCCCc1ncc[nH]1)c1ccc2nc(-n3cncn3)c(-c3ccc(F)cc3)nc2c1` [Compound I-418] were 60%, 500 to 1000 nM and 3%.
For the molecule `Nc1ccc(CCCNC(=O)c2ccc3nc(-c4ccc(F)cc4)c(-c4ccc(F)cc4)nc3c2)cn1` [Compound I-419, N-[3-(6-aminopyridin-3-yl)propyl]-2,3-bis(4-fluorophenyl)quinoxaline-6-carboxamide], on hNAMPT protein, the inhibition at 1 µM amounted to 52% and the IC50 is 500 to 1000 nM. Also, the inhibition at 1.667 µM with PC3 cells came to 3%.

For orientation: inhibition means how much of the control response was suppressed. What is called IC50 is the concentration at which inhibition is half-maximal.

These data come from patent publication US10144742B2 (Millennium Pharmaceuticals, Inc., priority 2014, dated 2018).
